{
  "source": "paper PMC3314654",
  "about": "“Characterization of Rhodamine-123 as a Tracer Dye for Use In In vitro Drug Transport Assays” (PLoS ONE, 2012)",
  "key": {"ABCB1 (MDR1)": {"target": "ABCB1 (MDR1) (Homo sapiens, UniProt P08183)", "sequence (P08183 whole entry)": "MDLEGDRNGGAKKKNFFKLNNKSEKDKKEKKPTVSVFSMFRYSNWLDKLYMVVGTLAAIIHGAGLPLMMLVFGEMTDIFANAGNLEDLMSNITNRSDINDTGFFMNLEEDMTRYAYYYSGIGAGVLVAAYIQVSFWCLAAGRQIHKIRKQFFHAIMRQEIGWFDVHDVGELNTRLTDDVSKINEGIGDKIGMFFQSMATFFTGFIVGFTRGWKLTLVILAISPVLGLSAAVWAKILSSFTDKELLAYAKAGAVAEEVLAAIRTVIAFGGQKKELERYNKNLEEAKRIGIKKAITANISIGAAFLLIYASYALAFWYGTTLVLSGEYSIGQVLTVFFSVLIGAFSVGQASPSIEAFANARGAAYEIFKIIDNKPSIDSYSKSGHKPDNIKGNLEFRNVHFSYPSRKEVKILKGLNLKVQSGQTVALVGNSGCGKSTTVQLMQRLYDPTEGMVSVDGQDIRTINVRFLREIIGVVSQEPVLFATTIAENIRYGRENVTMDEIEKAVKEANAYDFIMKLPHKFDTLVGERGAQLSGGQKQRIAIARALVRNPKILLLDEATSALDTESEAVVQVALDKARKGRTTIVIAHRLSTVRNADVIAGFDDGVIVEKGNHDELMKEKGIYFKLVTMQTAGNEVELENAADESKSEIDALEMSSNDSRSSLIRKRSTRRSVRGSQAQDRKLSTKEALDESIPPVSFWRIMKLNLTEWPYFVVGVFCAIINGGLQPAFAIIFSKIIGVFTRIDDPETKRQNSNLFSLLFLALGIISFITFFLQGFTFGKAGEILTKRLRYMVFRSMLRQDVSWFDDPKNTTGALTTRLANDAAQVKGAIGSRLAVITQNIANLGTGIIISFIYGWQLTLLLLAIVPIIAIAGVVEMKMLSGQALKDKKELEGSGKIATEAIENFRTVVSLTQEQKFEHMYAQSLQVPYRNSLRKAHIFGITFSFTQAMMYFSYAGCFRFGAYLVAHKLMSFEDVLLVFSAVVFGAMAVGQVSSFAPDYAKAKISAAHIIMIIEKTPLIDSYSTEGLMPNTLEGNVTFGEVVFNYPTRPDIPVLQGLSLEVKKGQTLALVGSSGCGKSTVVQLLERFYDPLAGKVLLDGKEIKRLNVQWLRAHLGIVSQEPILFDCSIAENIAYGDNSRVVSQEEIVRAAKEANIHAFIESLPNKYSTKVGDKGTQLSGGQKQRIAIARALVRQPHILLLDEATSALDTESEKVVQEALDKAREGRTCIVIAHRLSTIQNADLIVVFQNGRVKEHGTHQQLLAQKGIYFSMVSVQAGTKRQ", "experiment": "R123 efflux from MDCKII-ABCB1 versus naive MDCKII cells (Km)", "type": "cell-based", "conditions": "mdck"}, "OATP1A2": {"target": "T1, OATP1A2 (Homo sapiens, UniProt P46721)", "T1 construct": "gene SLCO1A2", "T1 sequence (P46721 1-670)": "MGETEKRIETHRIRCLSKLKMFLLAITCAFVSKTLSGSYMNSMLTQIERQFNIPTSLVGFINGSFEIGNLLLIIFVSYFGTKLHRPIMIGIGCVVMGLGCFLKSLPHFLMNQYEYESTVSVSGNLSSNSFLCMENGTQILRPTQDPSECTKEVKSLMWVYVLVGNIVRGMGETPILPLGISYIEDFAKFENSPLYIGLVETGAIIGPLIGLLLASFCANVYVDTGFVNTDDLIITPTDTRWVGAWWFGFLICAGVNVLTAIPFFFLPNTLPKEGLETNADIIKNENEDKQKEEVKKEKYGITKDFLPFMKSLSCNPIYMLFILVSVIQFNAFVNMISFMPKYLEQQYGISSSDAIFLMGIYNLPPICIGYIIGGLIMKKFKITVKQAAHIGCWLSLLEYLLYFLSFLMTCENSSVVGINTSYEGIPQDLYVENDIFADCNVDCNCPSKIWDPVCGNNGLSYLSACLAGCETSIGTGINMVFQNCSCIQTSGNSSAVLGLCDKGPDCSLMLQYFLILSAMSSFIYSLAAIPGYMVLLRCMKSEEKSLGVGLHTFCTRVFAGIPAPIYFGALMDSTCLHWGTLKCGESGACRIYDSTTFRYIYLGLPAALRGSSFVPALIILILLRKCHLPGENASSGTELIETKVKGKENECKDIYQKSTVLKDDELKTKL", "experiment": "R123 uptake in BacMam-transduced HEK293-MSRII cells (Km)", "type": "cell-based"}},
  "data": [
    {"molecule": "COC(=O)c1ccccc1-c1c2ccc(=N)cc-2oc2cc(N)ccc12", "note": "[R123, Rhodamine 123]", "values": [
      {"measurement": "Km", "setting": "ABCB1 (MDR1)", "value": "17.5 ± 2.8", "unit": "µM"},
      {"measurement": "Km", "setting": "OATP1A2", "value": "0.3 ± 0.1", "unit": "µM"}
    ]}
  ]
}
